Earlier results on 4 molecules are cited in patent US20080187998A1, “Sulfonamide-based oligomers and polymers for destabilization of biological membranes” (UNIVERSITY OF UTAH RESEARCH FOUNDATION, priority 2007, published 2008).

The conditions of this data set: monomeric sulfonamide.
For `COc1cc(NS(=O)(=O)c2ccc(N)cc2)nc(OC)n1` [SDM, sulfadimethoxine], the pKa was 6.1.
With `Nc1ccc(S(=O)(=O)Nc2ncccn2)cc1` [SDZ, sulfadiazine], the pKa is reported as 6.4-6.5.
Take `Cc1nnc(NS(=O)(=O)c2ccc(N)cc2)s1` [SMT, sulfamethizole]: the pKa was 5.45.
As to `Cc1ccnc(NS(=O)(=O)c2ccc(N)cc2)n1` [sulfamerazine], the pKa is given as 7.0.
